Assay results published in patent US6316439A, “Galanthamine derivatives as acetylcholinesterase inhibitors” (priority 1993, dated 2001).
Counter-ions that a name gives are not always drawn. Like-named read-outs stand apart in the source and are kept apart here.

Columns and labels:
mice = assay: Dark Avoidance Assay (SDDA), reversal of scopolamine induced memory deficit; format: in vivo; conditions: s.c., retest after 24 hours
Procedure: This utility can also be ascertained by determining the ability of these compounds to restore cholinergically deficient memory in the Dark Avoidance Assay. In this assay mice are tested for their ability to remember an unpleasant stimulus for a period of 24 hours. A mouse is placed in a chamber that contains a dark compartment; a strong incandescent light drives it to the dark compartment, where an electric shock is administered through metal plates on the floor. The animal is removed from the testing apparatus and tested again, 24 hours later, for the ability to remember the electric shock.
If scopolamine, an anticholinergic that is known to cause memory impairment, is administered before an animal's initial exposure to the test chamber, the animal re-enters the dark compartment shortly after being placed in the test chamber 24 hours later. This effect of scopolamine is blocked by an active test compounds, resulting in a greater interval before re-entry into the dark compartment.
The test results are expressed as the percent of a group of animals in which the effect of scopolamine is blocked, as manifested by an increased interval between being placed in the test chamber and reentering the dark compartment. Results of Dark Avoidance Assay for some of the compounds of this invention are presented in Table II along with a result for a reference compounds.

acetylcholinesterase = acetylcholinesterase (Homo sapiens, UniProt P22303); assay: Acetylcholinesterase Inhibition Assay (photometric method of Ellman et al.); format: biochemical
acetylcholinesterase, sequence (P22303 32-614): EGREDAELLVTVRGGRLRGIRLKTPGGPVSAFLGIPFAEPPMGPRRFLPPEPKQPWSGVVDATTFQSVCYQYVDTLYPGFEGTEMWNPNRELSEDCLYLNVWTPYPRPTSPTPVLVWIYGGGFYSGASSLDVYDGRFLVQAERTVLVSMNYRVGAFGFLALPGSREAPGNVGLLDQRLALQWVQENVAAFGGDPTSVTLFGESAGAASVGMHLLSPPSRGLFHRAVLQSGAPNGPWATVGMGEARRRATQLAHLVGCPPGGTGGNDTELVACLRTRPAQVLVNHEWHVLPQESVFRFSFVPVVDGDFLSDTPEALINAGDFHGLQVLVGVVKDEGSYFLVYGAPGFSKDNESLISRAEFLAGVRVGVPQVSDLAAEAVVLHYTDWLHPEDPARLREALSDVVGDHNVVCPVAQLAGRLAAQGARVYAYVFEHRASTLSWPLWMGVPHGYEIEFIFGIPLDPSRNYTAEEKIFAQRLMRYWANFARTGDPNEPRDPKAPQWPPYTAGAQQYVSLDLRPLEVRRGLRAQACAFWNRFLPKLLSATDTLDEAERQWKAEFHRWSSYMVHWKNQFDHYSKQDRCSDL

Row | Compound | Percent of Animals with Scopolamine Induced Memory Deficit Reversal (mice; 0.10 mg/kg) | other results
1 | CC(C)OC(=O)OC1C=CC23CCN(C)Cc4ccc(OC(=O)C(C)(C)C)c(c42)OC3C1.Cl.O (stereo not drawn) [6-O-Demethyl-3-O-(2-propoxy-carbonyl)-6-O-(t-butylcarbonyl)-galanthamine hydrochloride hydrate] | 53% of Animals | 
2 | CC(C)OC(=O)Oc1ccc2c3c1O[C@H]1C[C@@H](O)C=C[C@@]31CCN(C)C2 [6-O-Demethyl-6-O-(2-propoxycarbonyl)galanthamine] |  | IC50 (acetylcholinesterase): 1610 nM
3 | CN1CC[C@@]23C=C[C@H](O)C[C@@H]2Oc2c(OC(=O)C(C)(C)C)ccc(c23)C1 [6-O-Demethyl-6-O-(trimethylacetyl)-galanthamine] | 53% of Animals | 
4 | CN1CC[C@@]23C=C[C@H](O)C[C@@H]2Oc2c(OC(=O)C(C)(C)C)ccc(c23)C1 [Example 3, 6-O-Demethyl-6-O-(t-butylcarbonyl)galanthamine hydrochloride] |  | IC50 (acetylcholinesterase; photometric method of Ellman et al., read-out: IC50 CHE I): 2690 nM
5 | CC(C)OC(=O)Oc1ccc2c3c1O[C@H]1C[C@@H](O)C=C[C@@]31CCN(C)C2 [Example 9, 6-O-Demethyl-6-O-(prop-2-yl-oxycarbonyl)galanthamine hydrochloride] | 33% of Animals | 
6 | Nc1c2c(nc3ccccc13)CCCC2 [Tacrine, reference compound] |  | Percent of Animals with Scopolamine Induced Memory Deficit Reversal (mice; 0.31 mg/kg): 33% of Animals
